Patent US8580794B2 (AbbVie Inc., priority 2009, dated 2013)

molecular target: GST-Bc1-2 (Homo sapiens, UniProt P10415); assay: Time Resolved-Fluorescence Resonance Energy Transfer (TR-FRET) Bcl-2 binding assay with F-Bak peptide probe; settings: GST-Bcl-2 1 nM, F-Bak probe 100 nM, Tb-anti-GST 1 nM; '<' = below limit of detection; read-out: TR-FRET Bcl-2 Binding Ki
Sequence (P10415 whole entry): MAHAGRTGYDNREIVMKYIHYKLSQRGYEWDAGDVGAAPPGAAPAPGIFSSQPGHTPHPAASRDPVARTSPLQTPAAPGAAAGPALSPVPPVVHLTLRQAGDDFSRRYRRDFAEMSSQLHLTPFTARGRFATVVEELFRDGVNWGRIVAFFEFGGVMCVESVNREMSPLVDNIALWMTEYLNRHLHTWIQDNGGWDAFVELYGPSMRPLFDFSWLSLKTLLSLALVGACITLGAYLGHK

`CC1(C)CCC(CN2CCN(c3ccc(C(=O)NS(=O)(=O)c4ccc(OCC5(F)CCN(S(C)(=O)=O)CC5)c([N+](=O)[O-])c4)c(Oc4cnc5[nH]ccc5c4)c3)CC2)=C(c2ccc(Cl)cc2)C1` [Example 194, 4-(4-{[2-(4-chlorophenyl)-4,4-dimethylcyclohex-1-en-1-yl]methyl}piperazin-1-yl)-N-[(4-{[4-fluoro-1-(methylsulfonyl)piperidin-4-yl]methoxy}-3-nitrophenyl)sulfonyl]-2-(1H-pyrrolo[2,3-b]pyridin-5-yloxy)benzamide] and `CN1CCC(COc2ccc(S(=O)(=O)NC(=O)c3ccc(N4CCN(CC5=C(c6ccc(Cl)cc6)CC(C)(C)CC5)CC4)cc3Oc3cnc4[nH]ccc4c3)cc2[N+](=O)[O-])CC1` [Example 48, 4-(4-{[2-(4-chlorophenyl)-4,4-dimethylcyclohex-1-en-1-yl]methyl}piperazin-1-yl)-N-({4-[(1-methylpiperidin-4-yl)methoxy]-3-nitrophenyl}sulfonyl)-2-(1H-pyrrolo[2,3-b]pyridin-5-yloxy)benzamide] cannot be ordered by Ki: < 0.01 nM for the first, < 0.01 nM for the second.

`CC1(C)CCC(CN2CCN(c3ccc(C(=O)NS(=O)(=O)c4ccc(NCC5COCCN5C5CCC5)c([N+](=O)[O-])c4)c(Oc4cnc5[nH]ccc5c4)c3)CC2)=C(c2ccc(Cl)cc2)C1` (centres unmarked) [Example 170, 4-(4-{[2-(4-chlorophenyl)-4,4-dimethylcyclohex-1-en-1-yl]methyl}piperazin-1-yl)-N-[(4-{[(4-cyclobutylmorpholin-3-yl)methyl]amino}-3-nitrophenyl)sulfonyl]-2-(1H-pyrrolo[2,3-b]pyridin-5-yloxy)benzamide] and `CC1(C)CCC(CN2CCN(c3ccc(C(=O)NS(=O)(=O)c4ccc(NCC5COCCN5C5CCOCC5)c([N+](=O)[O-])c4)c(Oc4cnc5[nH]ccc5c4)c3)CC2)=C(c2ccc(Cl)cc2)C1` (centres unmarked) [Example 169, 4-(4-{[2-(4-chlorophenyl)-4,4-dimethylcyclohex-1-en-1-yl]methyl}piperazin-1-yl)-N-[(3-nitro-4-{[(4-tetrahydro-2H-pyran-4-ylmorpholin-3-yl)methyl]amino}phenyl)sulfonyl]-2-(1H-pyrrolo[2,3-b]pyridin-5-yloxy)benzamide] are within 1.5-fold of each other in Ki: 0.022 nM for the first, 0.021 nM for the second.

Going from `CC1(C)CCC(CN2CCN(c3ccc(C(=O)NS(=O)(=O)c4ccc(NCC5CCN(C6COC6)CC5)c([N+](=O)[O-])c4)c(Oc4cnc5[nH]ccc5c4)c3)CC2)=C(c2ccc(Cl)cc2)C1` [Example 163, 4-(4-{[2-(4-chlorophenyl)-4,4-dimethylcyclohex-1-en-1-yl]methyl}piperazin-1-yl)-N-[(3-nitro-4-{[(1-oxetan-3-ylpiperidin-4-yl)methyl]amino}phenyl)sulfonyl]-2-(1H-pyrrolo[2,3-b]pyridin-5-yloxy)benzamide] to `CC1(C)CCC(CN2CCN(c3ccc(C(=O)NS(=O)(=O)c4ccc(NC5CCN(C6CCOCC6)CC5)c([N+](=O)[O-])c4)c(Oc4cnc5[nH]ccc5c4)c3)CC2)=C(c2ccc(Cl)cc2)C1` [Example 3, 4-(4-{[2-(4-chlorophenyl)-4,4-dimethylcyclohex-1-en-1-yl]methyl}piperazin-1-yl)-N-({3-nitro-4-[(1-tetrahydro-2H-pyran-4-ylpiperidin-4-yl)amino]phenyl}sulfonyl)-2-(1H-pyrrolo[2,3-b]pyridin-5-yloxy)benzamide], the Ki rises from < 0.01 nM to 0.013 nM. The first binds more tightly here.

Compared with `CC(=O)N1CCC(Nc2ccc(S(=O)(=O)NC(=O)c3ccc(N4CCN(CC5=C(c6ccc(Cl)cc6)CC(C)(C)CC5)CC4)cc3Oc3cnc4[nH]ccc4c3)cc2[N+](=O)[O-])CC1` [Example 53, N-({4-[(1-acetylpiperidin-4-yl)amino]-3-nitrophenyl}sulfonyl)-4-(4-{[2-(4-chlorophenyl)-4,4-dimethylcyclohex-1-en-1-yl]methyl}piperazin-1-yl)-2-(1H-pyrrolo[2,3-b]pyridin-5-yloxy)benzamide], `CC1(C)CCC(CN2CCN(c3ccc(C(=O)NS(=O)(=O)c4ccc(NC5CCN(CC(F)F)CC5)c([N+](=O)[O-])c4)c(Oc4cnc5[nH]ccc5c4)c3)CC2)=C(c2ccc(Cl)cc2)C1` [Example 97, 4-(4-{[2-(4-chlorophenyl)-4,4-dimethylcyclohex-1-en-1-yl]methyl}piperazin-1-yl)-N-[(4-{[1-(2,2-difluoroethyl)piperidin-4-yl]amino}-3-nitrophenyl)sulfonyl]-2-(1H-pyrrolo[2,3-b]pyridin-5-yloxy)benzamide] is higher in Ki: < 0.01 nM for the first, 0.017 nM for the second.

Compared with `CC1(C)CCC(CN2CCN(c3ccc(C(=O)NS(=O)(=O)c4ccc(NCC5CCOCC5)c(C#N)c4)c(Oc4cnc5[nH]ccc5c4)c3)CC2)=C(c2ccc(Cl)cc2)C1` [Example 110, 4-(4-{[2-(4-chlorophenyl)-4,4-dimethylcyclohex-1-en-1-yl]methyl}piperazin-1-yl)-N-({3-cyano-4-[(tetrahydro-2H-pyran-4-ylmethyl)amino]phenyl}sulfonyl)-2-(1H-pyrrolo[2,3-b]pyridin-5-yloxy)benzamide], `CC1(C)CCC(CN2CCN(c3ccc(C(=O)NS(=O)(=O)c4ccc(NCC5CCOCC5)c([N+](=O)[O-])c4)c(Oc4ccc5[nH]ccc5c4)c3)CC2)=C(c2ccc(Cl)cc2)C1` [Example 18, 4-(4-{[2-(4-chlorophenyl)-4,4-dimethylcyclohex-1-en-1-yl]methyl}piperazin-1-yl)-2-(1H-indol-5-yloxy)-N-({3-nitro-4-[(tetrahydro-2H-pyran-4-ylmethyl)amino]phenyl}sulfonyl)benzamide] is 33-fold lower in Ki: 0.557 nM for the first, 0.017 nM for the second.

`CC1(C)CCC(CN2CCN(c3ccc(C(=O)NS(=O)(=O)c4ccc(NCC5CCN(S(C)(=O)=O)C5)c([N+](=O)[O-])c4)c(Oc4cnc5[nH]ccc5c4)c3)CC2)=C(c2ccc(Cl)cc2)C1` (centres unmarked) [Example 152, 4-(4-{[2-(4-chlorophenyl)-4,4-dimethylcyclohex-1-en-1-yl]methyl}piperazin-1-yl)-N-{[4-({[1-(methylsulfonyl)pyrrolidin-3-yl]methyl}amino)-3-nitrophenyl]sulfonyl}-2-(1H-pyrrolo[2,3-b]pyridin-5-yloxy)benzamide] and `CC1(C)CCC(CN2CCN(c3ccc(C(=O)NS(=O)(=O)c4ccc(N[C@@H]5CCN(C6CCOC(C)(C)C6)C5)c([N+](=O)[O-])c4)c(Oc4cnc5[nH]ccc5c4)c3)CC2)=C(c2ccc(Cl)cc2)C1` (stereo partly drawn) [Example 131, 4-(4-{[2-(4-chlorophenyl)-4,4-dimethylcyclohex-1-en-1-yl]methyl}piperazin-1-yl)-N-[(4-{[(3R)-1-(2,2-dimethyltetrahydro-2H-pyran-4-yl)pyrrolidin-3-yl]amino}-3-nitrophenyl)sulfonyl]-2-(1H-pyrrolo[2,3-b]pyridin-5-yloxy)benzamide] cannot be ordered by Ki: < 0.01 nM for the first, < 0.01 nM for the second.

First: O=C(NS(=O)(=O)c1cnc(OCC2(F)CCN(C3COC3)CC2)c(Cl)c1)c1ccc(N2CCN(CC3=C(c4ccc(Cl)cc4)CC4(CC3)CC4)CC2)cc1Oc1cnc2[nH]ccc2c1 [Example 345, N-[(5-chloro-6-{[4-fluoro-1-(oxetan-3-yl)piperidin-4-yl]methoxy}pyridin-3-yl)sulfonyl]-4-(4-{[5-(4-chlorophenyl)spiro[2.5]oct-5-en-6-yl]methyl}piperazin-1-yl)-2-(1H-pyrrolo[2,3-b]pyridin-5-yloxy)benzamide]
Second: CC1(C)CCC(CN2CCN(c3ccc(C(=O)NS(=O)(=O)c4cnc(OCC5(F)CCOCC5)c(F)c4)c(Oc4cnc5[nH]ccc5c4)c3)CC2)=C(c2ccc(Cl)cc2)C1 [Example 248, 4-(4-{[2-(4-chlorophenyl)-4,4-dimethylcyclohex-1-en-1-yl]methyl}piperazin-1-yl)-N-({5-fluoro-6-[(4-fluorotetrahydro-2H-pyran-4-yl)methoxy]pyridin-3-yl}sulfonyl)-2-(1H-pyrrolo[2,3-b]pyridin-5-yloxy)benzamide]
The Ki of the first is lower: < 0.01 nM for the first, 0.029 nM for the second. The first binds more tightly here.

Compared with `CC1(C)CCC(CN2CCN(c3ccc(C(=O)NS(=O)(=O)c4cnc(OCC5CCC(F)(F)CC5)c(Cl)c4)c(Oc4cnc5[nH]ccc5c4)c3)CC2)=C(c2ccc(Cl)cc2)C1` [Example 287, N-({5-chloro-6-[(4,4-difluorocyclohexyl)methoxy]pyridin-3-yl}sulfonyl)-4-(4-{[2-(4-chlorophenyl)-4,4-dimethylcyclohex-1-en-1-yl]methyl}piperazin-1-yl)-2-(1H-pyrrolo[2,3-b]pyridin-5-yloxy)benzamide], `CC1(C)CCC(CN2CCN(c3ccc(C(=O)NS(=O)(=O)c4cnc(O[C@@H]5CCN(C(CF)CF)C5)c(Cl)c4)c(Oc4cnc5[nH]ccc5c4)c3)CC2)=C(c2ccc(Cl)cc2)C1` [Example 274, N-[(5-chloro-6-{[(3R)-1-(1,3-difluoropropan-2-yl)pyrrolidin-3-yl]oxy}pyridin-3-yl)sulfonyl]-4-(4-{[2-(4-chlorophenyl)-4,4-dimethylcyclohex-1-en-1-yl]methyl}piperazin-1-yl)-2-(1H-pyrrolo[2,3-b]pyridin-5-yloxy)benzamide] is 2-fold lower in Ki: 0.081 nM for the first, 0.04 nM for the second. The second binds more tightly here.

Compared with `CC1(C)CCC(CN2CCN(c3ccc(C(=O)NS(=O)(=O)c4ccc(N[C@@H]5CCN(C(CF)CF)C5)c(S(=O)(=O)C(F)(F)F)c4)c(Oc4cnc5[nH]ccc5c4)c3)CC2)=C(c2ccc(Cl)cc2)C1` [Example 225, 4-(4-{[2-(4-chlorophenyl)-4,4-dimethylcyclohex-1-en-1-yl]methyl}piperazin-1-yl)-N-[(4-{[(3R)-1-(1,3-difluoropropan-2-yl)pyrrolidin-3-yl]amino}-3-[(trifluoromethyl)sulfonyl]phenyl)sulfonyl]-2-(1H-pyrrolo[2,3-b]pyridin-5-yloxy)benzamide], `CCN1CCOCC1COc1ncc(S(=O)(=O)NC(=O)c2ccc(N3CCN(CC4=C(c5ccc(Cl)cc5)CC(C)(C)CC4)CC3)cc2Oc2cnc3[nH]ccc3c2)cc1Br` (centres unmarked) [Example 102, N-({5-bromo-6-[(4-ethylmorpholin-3-yl)methoxy]pyridin-3-yl}sulfonyl)-4-(4-{[2-(4-chlorophenyl)-4,4-dimethylcyclohex-1-en-1-yl]methyl}piperazin-1-yl)-2-(1H-pyrrolo[2,3-b]pyridin-5-yloxy)benzamide] is 2.1-fold lower in Ki: 0.196 nM for the first, 0.094 nM for the second. The second binds more tightly here.

same assay, conditions: Table 5, direct comparison Z=N vs Z=C analogs; read-out: Bcl-2 FRET ki

`CC1(C)CCC(CN2CCN(c3ccc(C(=O)NS(=O)(=O)c4ccc(NC5CCN(C6CCOCC6)CC5)c([N+](=O)[O-])c4)c(Oc4cnc5[nH]ccc5c4)c3)CC2)=C(c2ccc(Cl)cc2)C1` [Example 3, 4-(4-{[2-(4-chlorophenyl)-4,4-dimethylcyclohex-1-en-1-yl]methyl}piperazin-1-yl)-N-({3-nitro-4-[(1-tetrahydro-2H-pyran-4-ylpiperidin-4-yl)amino]phenyl}sulfonyl)-2-(1H-pyrrolo[2,3-b]pyridin-5-yloxy)benzamide] and `CC1(C)CCC(CN2CCN(c3ccc(C(=O)NS(=O)(=O)c4ccc(NCC5CCOCC5)c([N+](=O)[O-])c4)c(Oc4ccc5[nH]ccc5c4)c3)CC2)=C(c2ccc(Cl)cc2)C1` [Example 18, 4-(4-{[2-(4-chlorophenyl)-4,4-dimethylcyclohex-1-en-1-yl]methyl}piperazin-1-yl)-2-(1H-indol-5-yloxy)-N-({3-nitro-4-[(tetrahydro-2H-pyran-4-ylmethyl)amino]phenyl}sulfonyl)benzamide] are within 1.5-fold of each other in Ki: 0.013 nM for the first, 0.017 nM for the second.
